The results in this text go back to US4696925A, “Cholecystokinin antagonist compounds” (Merck & Co., Inc., priority 1985, dated 1987).

Each structure is given as a SMILES string.

In the first test the target is T1, Pancreatic CCK (Rattus norvegicus, UniProt P30551).
T1 construct: from tissue; host or cells: pancreas (rat, inferred from the cited method)
T1 sequence (P30551 1-444): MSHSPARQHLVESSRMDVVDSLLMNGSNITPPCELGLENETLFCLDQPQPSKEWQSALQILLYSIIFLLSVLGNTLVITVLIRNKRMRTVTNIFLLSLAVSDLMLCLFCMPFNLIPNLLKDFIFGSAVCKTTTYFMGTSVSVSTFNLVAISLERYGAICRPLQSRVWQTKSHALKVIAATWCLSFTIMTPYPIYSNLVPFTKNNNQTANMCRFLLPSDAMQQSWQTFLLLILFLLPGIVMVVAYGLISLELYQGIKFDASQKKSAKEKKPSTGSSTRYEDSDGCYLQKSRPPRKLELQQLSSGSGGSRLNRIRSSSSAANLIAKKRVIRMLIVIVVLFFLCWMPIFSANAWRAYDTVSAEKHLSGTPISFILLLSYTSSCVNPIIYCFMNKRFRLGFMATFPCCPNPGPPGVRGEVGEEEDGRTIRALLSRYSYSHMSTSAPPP
The experiment in a line: Pancreatic CCK inhibition (assay of European Patent Application No. 0,116,150). The settings on record: pancreas CCK inhibition, European Patent Application assay; leucine analogs. The format is binding. From the text: The following formula and tabulation further identify the above listed compounds. Pancreatic CCK inhibition data is also provided; the assay used is that disclosed in said European Patent Application No. 0,116,150.
The following table contains information Identifying other compounds of the present invention and pancrease CCK inhibition data (European Patent Application Assay).
`O=C1NC(CC2(O)c3ccccc3N3C(=O)C(C4CCCC4)NC32)c2nc3ccccc3c(=O)n2-c2ccccc21` (stereo not drawn) [Compound 931] gave an IC50 of 2.2 µM.
As for `O=C1NC(CC2(O)c3ccccc3N3C(=O)C(C4CCCCC4)NC32)c2nc3ccccc3c(=O)n2-c2ccccc21` (stereo not drawn) [Compound 068], the 50% inhibitory concentration (IC50) is 0.6 µM.
As for `CCCC1NC2N(C1=O)c1ccccc1C2(O)CC1NC(=O)c2ccccc2-n2c1nc1ccccc1c2=O` (stereo not drawn) [Compound 539], half-maximal inhibition (IC50) required 11.9 µM.
Molecule `CCSCCC1NC2N(C1=O)c1ccccc1C2(O)CC1NC(=O)c2ccccc2-n2c1nc1ccccc1c2=O` (stereo not drawn) [Compound 721] showed an IC50 of 1.5 µM.
For `C=C(C)CC1NC2N(C1=O)c1ccccc1C2(O)CC1NC(=O)c2ccccc2-n2c1nc1ccccc1c2=O` (stereo not drawn) [Compound 538], the 50% inhibitory concentration (IC50) amounted to 3.3 µM.
Take `CSCCC1NC2N(C1=O)c1ccccc1C2(O)CC1NC(=O)c2ccccc2-n2c1nc1ccccc1c2=O` (stereo not drawn) [Compound 655]: the midpoint of inhibition, the IC50, lay at 4.1 µM.
`O=C1NC(CC2(O)c3ccccc3N3C(=O)C(c4ccccc4)NC32)c2nc3ccccc3c(=O)n2-c2ccccc21` (stereo not drawn) [Compound 500] yielded an IC50 of 20 µM.
Consider `CCCCC1NC2N(C1=O)c1ccccc1C2(O)CC1NC(=O)c2ccccc2-n2c1nc1ccccc1c2=O` (stereo not drawn) [Compound 656], for which the midpoint of inhibition, the IC50, lay at 2.5 µM.
On to `CC(CC1NC2N(C1=O)c1ccccc1C2(O)CC1NC(=O)c2ccccc2-n2c1nc1ccccc1c2=O)C(F)(F)F` (stereo not drawn) [Compound 328], for which the midpoint of inhibition, the IC50, lay at 1 µM.
Still for that read-out and setting: the value for `C=CCC1NC2N(C1=O)c1ccccc1C2(O)CC1NC(=O)c2ccccc2-n2c1nc1ccccc1c2=O` (stereo not drawn) [Compound 540] was 7.6 µM; that for `CCC(C)C1NC2N(C1=O)c1ccccc1C2(O)CC1NC(=O)c2ccccc2-n2c1nc1ccccc1c2=O` (stereo not drawn) [Compound 654] was 5.9 µM.

The same test, now with this note: pancreatic CCK inhibition, assay of EP 0,116,150.
`O=C1c2cc(F)ccc2-n2c(nc3ccc(F)cc3c2=O)C2CC3(O)c4cc(F)ccc4NC3N12` (stereo not drawn) [Compound 857]: the IC50 is 2.52 µM.
As for `CC(C)C[C@@H]1NC2N(C1=O)c1ccccc1C2(O)C[C@@H]1NC(=O)c2ccc(F)cc2-n2c1nc1ccccc1c2=O` (stereo partly drawn) [Compound 845], half-maximal inhibition (IC50) required 1.45 µM.
For the molecule `O=C1c2ccccc2-n2c(nc3ccccc3c2=O)C2CC3(O)c4cc(F)ccc4NC3N12` (stereo not drawn) [Compound 856], the IC50 is 30 µM.
`O=C1NC(Cc2c[nH]c3ncccc23)c2nc3ccccc3c(=O)n2-c2ccccc21` (stereo not drawn) [Compound 841] gave a half-maximal inhibitory concentration (IC50) of 29.9 µM.
